Key:
Salmonella typhi = assay: Kirby-Bauer disc diffusion; format: cell-based; settings: reference antibiotic disc (5 μg)
[1] = test system: Candida albicans ATCC10231; assay: Kirby-Bauer disc diffusion; format: cell-based; settings: reference antibiotic disc (100unit)
Description: (§1) Experimental procedures include the following steps: • 1.

[2] = test system: Cryptococcus neoformans ATCC90112; assay: Kirby-Bauer disc diffusion; format: cell-based; settings: reference antibiotic disc (100unit)
Description: as §1

[3] = test system: alloxan induced-diabetic rats; assay: Antihyperglycemic activity: fall in fasting blood glucose in alloxan induced-diabetic rats; format: in vivo, rat

Question: With `O=C(O)c1cn(C2CC2)c2cc(N3CCNCC3)c(F)cc2c1=O` [Cipro, ciprofloxacin] as the molecule, how does the “Zone of inhibition, Sal. typhi” value (Salmonella typhi) read?
Answer: 35 mm

Question: With `C[C@@H]1[C@H](O)[C@@H](C)/C=C/C=C/CC/C=C/C=C/C=C/C=C/C(O[C@H]2O[C@H](C)[C@@H](O)[C@H](N)[C@@H]2O)CC2O[C@](O)(CC(O)C(O)CCC(O)CC(O)CC(O)CC(=O)O[C@H]1C)CC(O)C2C(=O)O` (stereo partly drawn) [Nystatin, nystatin] as the molecule, how does the “Zone of inhibition, C. albicans” value [1] read?
Answer: 10 mm

Question: And the “Zone of inhibition, C. neoformance” value [2]?
Answer: 9 mm

Question: With “insulin: insulin from bovine pancreas (≧27 units/mg)” as the molecule, how does the FBG ([3]; all insulin-injected rats, after two hours of injection (p<0.001)) read?
Answer: sharp significant decrease

Question: What about the “FBG difference between normal rats and treated diabetic rats” value ([3]; at either dose) of the same molecule?
Answer: No significant difference

Question: And the FBG ([3]; insulin 10 units/kg b.w, after 8 hours of treatment)?
Answer: returned to the diabetic state
